Measured values as given in publication PMC5066224, “A Novel Resveratrol Based Tubulin Inhibitor Induces Mitotic Arrest and Activates Apoptosis in Cancer Cells” (Scientific Reports, 2016).

Tests used:
purified Tubulin = experiment: Circular dichroism of Tubulin with SS28; type: binding; settings: Tubulin 1 μM in PEM buffer, 200-260 nm, 4 °C
Protocol: Purified Tubulin (1 μM) was resuspended in PEM buffer (80 mM PIPES (pH 6.9), 2 mM MgCl2, 0.5 mM EGTA, 1.0 mM GTP and 5% glycerol) and CD spectrum was recorded at a wavelength of 200 to 260 nm (4 °C) on a JASCO J-810 spectropolarimeter. 3 cycles were acquired for each sample at a scan speed of 100 nm/sec. Increasing concentration of SS28 (500 pM, 1, 10, 100 and 1000 nM) was incubated with Tubulin (1 μM) in PEM buffer and the spectrum was recorded. Spectral measurements were taken for buffer alone and buffer containing DMSO were subtracted from experimental data. The molar ellipticity was calculated using Spectra Manager software and plotted as a function of wavelength.

EAC cells tumor = experiment: Antitumor activity in EAC solid tumor mouse model; type: in vivo; settings: EAC tumor BALB/c mice, 15 mg/kg oral, nine doses every alternate day from 12th day, up to 28 days
Protocol: EAC cells were collected from donor mice (Swiss albino) and resuspended in sterile saline. A fixed number of viable cells were injected into the peritoneal cavity of each recipient mouse and were allowed to multiply. The cells were withdrawn, diluted in saline and injected (15 × 10^5 cells/animal) into the right thigh tissue of experimental animals for developing solid tumor.
A total number of 30 BALB/c mice were divided into three batches and were used for the present study. EAC cells (15 × 10^5 cells/animal) were injected into right thigh for the development of solid tumor as described previously. Among the 10 animals in each batch, 5 animals served as tumor control and the rest 5 animals received SS28 treatment (15 mg/kg b.wt.) by oral administration using gastric gavage. The dose used was selected based on preliminary studies. The first dose was given after 12th day of tumor development (9 doses over a period of 3 weeks). The diameter of developing tumor was measured using vernier calipers at alternative days for entire life span of tumor animal and tumor volume was calculated using the formula V = 0.5 × a × b^2, where “a” and “b” indicates the major and minor diameter, respectively.

[1] = tested on: several cancer cell lines; experiment: Cytotoxicity in cancer cell lines ex vivo (summary); type: cell-based
Protocol: (§1) The effect of SS28 on viability of CEM, Reh, Nalm6, SUDHL8, Molt4, A549, HeLa 293T, mouse embryonic fibroblast (MEF) and PBMC was determined by trypan blue dye exclusion assay as described previously. Briefly, cells (0.75 × 10^5 cells/ml) were treated with increasing concentrations of SS28 (1, 5, 10 and 20, μM) for 48 and 72 h. DMSO treated cells were used as the vehicle control. Cells were harvested and subjected to trypan blue assay. Data from a minimum of three independent experiments is presented as a histogram with error bars.

HeLa cells = experiment: Trypan blue dye exclusion cell viability assay; type: cell-based; settings: Homo sapiens, 48 h
Protocol: as §1

IC50 (HeLa cells): 32.4 µM
SMILES: COc1cc(/C=C/c2ccc(C)cc2)cc(OC)c1OC [SS28, (E)-1,2,3-trimethoxy-5-(4-methylstyryl)benzene]
concentration from which a shift in the CD spectrum of Tubulin was seen (purified Tubulin): ≥ 500 pM
tumor progression (tumor volume) (EAC cells tumor): no further tumor progression
IC50 [1]: 3 to 5 µM
